≈ marks a conversion by molar mass, not a printed value. Calls of active or inactive are those of the source. The calls are words filed in the database; no cut-off is given here.
Columns and labels:
[1] = test system: Staphylococcus aureus; experiment: Antibacterial activity against methicillin resistant Staphylococcus aureus NCTC10442 assessed as inhibition of bacterial growth in presence of 19 umol/L Zn2+ (reference value: […] microg/ml); format: functional
[2] = test system: Staphylococcus aureus; experiment: Antibacterial activity against Staphylococcus aureus ATCC 15981 assessed as inhibition of bacterial growth incubated for 24 hrs by microbroth dilution method; format: functional
[3] = test system: Staphylococcus aureus; experiment: Antibacterial activity against methicillin resistant Staphylococcus aureus NCTC10442 assessed as inhibition of bacterial growth in presence of 2.50 mmol/L Ca2+ (reference value: […] microg/ml); format: functional
[4] = Displacement of BODIPY-TR-cadaverine from Lipoteichoic acid at 4 times MIC preincubated with LTA for 15 mins followed by compound addition and measured for 30 mins by fluorescence based microplate reader assay; conditions: time 45.0 min
[5] = test system: Staphylococcus aureus; experiment: Antibacterial activity against Staphylococcus aureus ATCC 29213 assessed as inhibition of bacterial growth in presence of 140 mmol/L Na+ (reference value: […] microg/ml); format: functional
[6] = Hemolytic activity in rabbit RBC incubated for 1 hr by microplate reader analysis; format: toxicity, cell-based, Oryctolagus cuniculus, Erythrocyte; conditions: rabbit red blood cells (erythrocytes)
[7] = test system: Staphylococcus aureus; experiment: Antibacterial activity against methicillin resistant Staphylococcus aureus NCTC10442 assessed as inhibition of bacterial growth in presence of 20 umol/L […] (reference value: […] microg/ml); format: functional
[8] = test system: Staphylococcus aureus; experiment: Antibacterial activity against Staphylococcus aureus ATCC 29213 assessed as inhibition of bacterial growth in presence of 19 umol/L Zn2+ (reference value: […] microg/ml); format: functional
[9] = test system: Cell membrane; experiment: Disruption of membrane integrity in Staphylococcus aureus ATCC 29213 assessed as cell membrane damage at 8 times MIC incubated for 2 hrs by Live/dead staining based laser confocal microscopy analysis; format: subcellular
[10] = test system: Staphylococcus aureus; experiment: Bactericidal activity against Staphylococcus aureus ATCC 29213 at 4 to 8 times MIC after 24 hrs by time kill assay; format: functional, organism-based
[11] = test system: Staphylococcus aureus; experiment: Antibacterial activity against Staphylococcus aureus ATCC 29213 assessed as inhibition of bacterial growth in presence of 20 umol/L Fe2+ (reference value: […] microg/ml); format: functional
[12] = test system: Cell membrane; experiment: Induction of cell membrane disruption in methicillin resistant Staphylococcus aureus NCTC10442 assessed as increase in fluorescence intensity measured for 100 mins by SYTOX green assay; format: subcellular; conditions: DDE = dose-dependent effect
[13] = test system: Staphylococcus aureus; experiment: Antibacterial activity against methicillin resistant Staphylococcus aureus N315 assessed as inhibition of bacterial growth in presence of 1.00 mmol/L Mg2+ (reference value: […] microg/ml); format: functional
[14] = test system: Staphylococcus aureus; experiment: Antibacterial activity against methicillin resistant Staphylococcus aureus NCTC10442 assessed as inhibition of bacterial growth in presence of 20 umol/L Fe2+ (reference value: […] microg/ml); format: functional
[15] = test system: Staphylococcus aureus; experiment: Antibacterial activity against methicillin resistant Staphylococcus aureus NCTC10442 assessed as inhibition of bacterial growth incubated for 24 hrs by microbroth dilution method; format: functional
[16] = test system: Staphylococcus aureus; experiment: Antibacterial activity against methicillin resistant Staphylococcus aureus NCTC10442 assessed as inhibition of bacterial growth in presence of 4.5 mmol/L K+ (reference value: […] microg/ml); format: functional
[17] = Cytotoxicity against human HEK293 cells assessed as cell viability at 50 ug/ml after 24 hrs by CCK8 assay; format: toxicity, cell-based; conditions: at 50 µg/mL, read-out: Activity
[18] = test system: Bacillus subtilis; experiment: Antibacterial activity against Bacillus subtilis CMCC63501 assessed as inhibition of bacterial growth incubated for 24 hrs by microbroth dilution method; format: functional
[19] = test system: Staphylococcus aureus; experiment: Antibacterial activity against Staphylococcus aureus ATCC 29213 assessed as inhibition of bacterial growth incubated for 24 hrs by microbroth dilution method; format: functional
[20] = test system: Staphylococcus aureus; experiment: Antibacterial activity against methicillin resistant Staphylococcus aureus N315 assessed as inhibition of bacterial growth incubated for 24 hrs by microbroth dilution method; format: functional
[21] = test system: Staphylococcus aureus; experiment: Antibacterial activity against methicillin resistant Staphylococcus aureus NCTC10442 assessed as inhibition of bacterial growth in presence of 140 mmol/L Na+ (reference value: […] microg/ml); format: functional
[22] = Cytotoxicity against mouse NCTC clone 929 cells assessed as cell viability at 50 ug/ml after 24 hrs by CCK8 assay; format: toxicity, cell-based; conditions: at 50 µg/mL, read-out: Activity
[23] = test system: Staphylococcus aureus; experiment: Antibacterial activity against Staphylococcus aureus ATCC 29213 infected in mouse corneal infection model assessed as log reduction in bacterial load at 5 mg/ml pre-infected with bacteria for 24 hrs followed by compound administered four times a day for 3 consecutive weeks; format: functional; conditions: time 3 weeks
[24] = test system: Staphylococcus aureus; experiment: Antibacterial activity against methicillin resistant Staphylococcus aureus N315 assessed as inhibition of bacterial growth in presence of 20 umol/L Fe2+ (reference value: […] microg/ml); format: functional
[25] = test system: Staphylococcus aureus; experiment: Antibacterial activity against methicillin resistant Staphylococcus aureus N315 assessed as inhibition of bacterial growth in presence of 2.50 mmol/L Ca2+ (reference value: […] microg/ml); format: functional
[26] = test system: Staphylococcus aureus; experiment: Antibacterial activity against Staphylococcus aureus ATCC 29213 assessed as inhibition of bacterial growth in presence of 1.00 mmol/L Mg2+ (reference value: […] microg/ml); format: functional
[27] = test system: Staphylococcus aureus; experiment: Antibacterial activity against methicillin resistant Staphylococcus aureus NCTC10442 assessed as inhibition of bacterial growth in presence of 1.00 mmol/L Mg2+ (reference value: […] microg/ml); format: functional
[28] = test system: Staphylococcus aureus; experiment: Antibacterial activity against methicillin resistant Staphylococcus aureus N315 assessed as inhibition of bacterial growth in presence of 20 umol/L […] (reference value: […] microg/ml); format: functional
[29] = test system: Staphylococcus aureus; experiment: Antibacterial activity against Staphylococcus aureus ATCC 29213 assessed as inhibition of bacterial growth in presence of 2.50 mmol/L Ca2+ (reference value: […] microg/ml); format: functional
[30] = test system: Enterococcus faecalis; experiment: Antibacterial activity against Enterococcus faecalis ATCC 29212 assessed as inhibition of bacterial growth incubated for 24 hrs by microbroth dilution method; format: functional
[31] = Displacement of BODIPY-TR-cadaverine from Lipoteichoic acid preincubated with LTA for 15 mins followed by compound addition and measured for 30 mins by fluorescence based microplate reader assay; conditions: time 45.0 min; DDE = dose-dependent effect
[32] = test system: Staphylococcus aureus; experiment: Antibacterial activity against methicillin resistant Staphylococcus aureus N315 assessed as inhibition of bacterial growth in presence of 19 umol/L Zn2+ (reference value: […] microg/ml); format: functional
[33] = test system: Staphylococcus aureus; experiment: Induction of morphological changes in Staphylococcus aureus ATCC 29213 assessed as perforation at 8 times MIC incubated for 2 hrs by TEM analysis; format: functional, organism-based
[34] = test system: Staphylococcus aureus; experiment: Antibacterial activity against methicillin resistant Staphylococcus aureus N315 assessed as inhibition of bacterial growth in presence of 4.5 mmol/L K+ (reference value: […] microg/ml); format: functional
[35] = test system: Staphylococcus epidermidis; experiment: Antibacterial activity against Staphylococcus epidermidis ATCC 12228 assessed as inhibition of bacterial growth incubated for 24 hrs by microbroth dilution method; format: functional
[36] = test system: Staphylococcus aureus; experiment: Antibacterial activity against Staphylococcus aureus ATCC 29213 assessed as inhibition of bacterial growth in presence of 20 umol/L […] (reference value: […] microg/ml); format: functional
[37] = test system: Cell membrane; experiment: Induction of cell membrane disruption in Staphylococcus aureus ATCC 29213 assessed as increase in fluorescence intensity measured for 100 mins by SYTOX green assay; format: subcellular; conditions: DDE = dose-dependent effect
[38] = test system: Staphylococcus aureus; experiment: Bactericidal activity against Staphylococcus aureus ATCC 29213 at 4 to 8 times MIC after 0.5 hrs by time kill assay; format: functional
[39] = test system: Staphylococcus aureus; experiment: Antibacterial activity against methicillin resistant Staphylococcus aureus N315 assessed as inhibition of bacterial growth in presence of 140 mmol/L Na+ (reference value: […] microg/ml); format: functional
[40] = test system: Staphylococcus epidermidis; experiment: Antibacterial activity against Staphylococcus epidermidis CMCC26069 assessed as inhibition of bacterial growth incubated for 24 hrs by microbroth dilution method; format: functional
[41] = test system: Staphylococcus aureus; experiment: Antibacterial activity against Staphylococcus aureus ATCC 29213 assessed as inhibition of bacterial growth in presence of 4.5 mmol/L K+ (reference value: […] microg/ml); format: functional
[42] = test system: Staphylococcus aureus; experiment: Antibacterial activity against Staphylococcus aureus ATCC 29213 infected in mouse corneal infection model assessed as log reduction in bacterial load at 50 mg/ml pre-infected with bacteria for 24 hrs followed by compound administered four times a day for 3 consecutive weeks; format: functional; conditions: time 3 weeks

`COC(=O)[C@H](CCCNC(=N)N)NC(=O)COc1ccc(C(C)(C)CC(C)(C)C)cc1Sc1cc(C(C)(C)CC(C)(C)C)ccc1OCC(=O)N[C@@H](CCCNC(=N)N)C(=O)OC` gave an MIC [1] of 0.78 µg/mL, an MIC [2] of 0.78 µg/mL (≈ 0.867 µM) and an MIC [3] of 0.78 µg/mL. For the same molecule, the Activity [4] was 62.2%, the MIC [5] was 1.56 µg/mL and the HC50 at 1 h [6] was greater than 200 µg/mL. The MIC [7] was 0.78 µg/mL, the MIC [8] was 0.78 µg/mL and the Activity [9] was “Active”. For the same molecule, the Activity [10] was “Active”, the MIC [11] was 0.78 µg/mL and the Activity [12] was “Dde”. The MIC [13] was 0.78 µg/mL, the MIC [14] was 0.78 µg/mL and the MIC [15] was 0.78 µg/mL (≈ 0.867 µM). It also gave an MIC [16] of 0.78 µg/mL, a viability at 24 h, 50 ug/ml [17] of 55.9% and an MIC [18] of 0.78 µg/mL (≈ 0.867 µM). It also gave an MIC [19] of 1.56 µg/mL (≈ 1.73 µM), an MIC [20] of 0.78 µg/mL (≈ 0.867 µM) and an MIC [21] of 0.78 µg/mL. The viability at 24 h, 50 ug/ml [22] was 53.1%, the “log(activity)” value [23] was 6.81 and the MIC [24] was 0.78 µg/mL. For the same molecule, the MIC [25] was 0.78 µg/mL, the MIC [26] was 1.56 µg/mL and the MIC [27] was 0.78 µg/mL. For the same molecule, the MIC [28] was 0.78 µg/mL, the MIC [29] was 1.56 µg/mL and the MIC [30] was 0.78 µg/mL (≈ 0.867 µM). The Activity [31] was “Dde”, the MIC [32] was 0.78 µg/mL and the Activity [33] was “Active”. The MIC [34] was 0.78 µg/mL, the MIC [35] was 0.39 µg/mL (≈ 0.434 µM) and the MIC [36] was 0.78 µg/mL. The Activity [37] was “Dde”, the Activity [38] was 99.99% and the MIC [39] was 0.39 µg/mL. For the same molecule, the MIC [40] was 0.39 µg/mL (≈ 0.434 µM) and the MIC [41] was 1.56 µg/mL.
`CN[C@H](CC(C)C)C(=O)N[C@H]1C(=O)N[C@@H](CC(N)=O)C(=O)N[C@H]2C(=O)N[C@H]3C(=O)N[C@H](C(=O)N[C@H](C(=O)O)c4cc(O)cc(O)c4-c4cc3ccc4O)[C@H](O)c3ccc(c(Cl)c3)Oc3cc2cc(c3O[C@@H]2O[C@H](CO)[C@@H](O)[C@H](O)[C@H]2O[C@H]2C[C@](C)(N)[C@H](O)[C@H](C)O2)Oc2ccc(cc2Cl)[C@H]1O` [VANCOMYCIN] gave an MIC [15] of 0.78 µg/mL (≈ 0.538 µM), an MIC [19] of 0.78 µg/mL (≈ 0.538 µM) and an MIC [20] of 1.56 µg/mL (≈ 1.08 µM). For the same molecule, the “log(activity)” value [42] was 5.21.
